The values that follow come from US20130288956A1, “COMBINED PHARMACEUTICAL COMPOSITION AS ANTIFUNGAL AGENT” (priority 2010, published 2013).

In experiment [1] the test system is A. flavus strain IFM50915. Nature of the experiment: A. flavus respiratory tract infection model. It is filed as in vivo, mice. The procedure: Female DBA/2N mice (age 8 weeks, Charles River Laboratories Japan, Inc.) were subcutaneously administered 200 mg/kg of 5-fluorouracil 5 or 6 days prior to infection in order to put the mice into a compromised state.
A. fumigatus strain IFM52108 and A. flavus strain IFM50915 were used.
A liquid containing spores of A. flavus strain IFM50915 stored at −80° C. was thawed, and the number of spores was counted using a hemocytometer followed by diluting with sterile physiological saline containing 0.05% Tween 80 to a concentration of 0.6×10^6 cells/mL to 1.0×10^6 cells/mL to obtain an inoculation fungus liquid.
50 μl of inoculation fungus liquid were inoculated into the nasal cavities of 9-week-old mice at 0.3×10^5 cells/mouse to 1.25×10^5 cells/mouse under Ketalar anesthesia.
0.1 mL to 0.2 mL of each drug solution (dissolved in sterile physiological saline or 5% glucose solution, or dissolved in sterile physiological saline or 5% glucose solution containing 6.5% dimethylsulfoxide and 3.5% Tween 80) was administered to the individual and combination dose groups either into the peritoneal cavity or into the stomach using a gastric cannula corresponding to the administration route of the drug for 3 to 4 days at the rate of 1 to 2 times per day starting 0.5 hours to 1 hour after inoculation of fungus.
There were 5 to 9 animals in each group.
Infection protection results were assessed on survival rate 14 days after infection.

The subject of experiment [2] is A. flavus. Nature of the experiment: In vitro combination effects, checkerboard method by micro dilution (FIC index). The settings on record: A. flavus (4 strains), Table 1. It is filed as cell-based, Aspergillus flavus. The procedure: (§1) A clinically isolated strain retained by the Medical Mycology Research Center of Chiba University (Code No. IFM) and a clinically isolated strain retained by the Life Science Research Center of Gifu University (Code No. E) were used as Candida and Aspergillus strains.
(§2) An Aspergillus strain stored frozen at −80° C., or spores obtained by static culturing at 35° C. for 1 week in Potato Dextrose agar medium (PDA, Eiken Chemical Co., Ltd.) followed by scraping from the container with a metal loop, was diluted with RPMI 1640 medium containing 0.165 M MOPS to prepare a fungus liquid having a fungus concentration of 0.75×10^4 cells/mL to 1.33×10^4 cells/mL.
(§3) Test Compound 1 (0.0005 μg/mL to 1.56 μg/mL) in the horizontal rows (12 wells) of a 96-well flat-bottom plate, and an antifungal agent in the form of ravuconazole (0.0015 μg/mL to 6.25 μg/mL), fluconazole (0.008 μg/mL to 32 μg/mL), voriconazole (0.0002 μg/mL to 8 μg/mL), micafungin (0.0005 μg/mL to 0.25 μg/mL), caspofungin (0.0005 μg/mL to 1 μg/mL) or amphotericin B (0.008 μg/mL to 8 μg/mL) in the vertical rows (8 wells) of the flat-bottom plate were prepared by diluting so as to blend together using RPMI 1640 medium containing 0.165 M MOPS to obtain a control group, a single Test Compound 1 group, each one of antifungal agents groups and combination groups of Test Compound 1+each one of antifungal agents.
(§4) The fungus liquids prepared in (1) were inoculated into the wells of 96-well flat-bottom plate containing 20 μL/well to 75 μL/well of the diluted test drug liquids prepared in (2) at 80 μL/well to 125 μL/well, followed by aerobically static culturing for 25 hours to 48 hours at 35° C.
(§5) Combination effects of Test Compound 1 and the antifungal agents were measured with the checkerboard method by micro dilution.
(§6) Interaction between both drugs was assessed by calculating the FIC index using the calculation formula indicated below.
(§7) The FIC index was calculated for each combination of antifungal agent concentrations that inhibited fungal growth, and the minimum value of the resulting FIC index was used as a combination FIC index.
(§8) A combination FIC index of 0.5 or less was evaluated as indicating synergistic action, that of 0.5 to 1 or less was evaluated as indicating additive action, and that of 1 to 4 or less was evaluated as indicating indifferent action.
(§9) FIC Index=(MIC value of drug A during combination use/MIC value of drug A when used alone)+(MIC value of drug B during combination use/MIC value of drug B when used alone) (Calculation Formula)

For experiment [3], the system named is C. glabrata. The description is as above. To be noted: C. glabrata (10 strains); combination use with Test Compound 1. It is filed as cell-based, Candida glabrata. The procedure:
as §1
(§10) Fungus liquid obtained by static culturing at 35° C. for 48 hours in Sabouraud Dextrose liquid medium (SDB, Becton, Dickinson and Co.) was diluted with RPMI 1640 medium (Nissui Pharmaceutical Co., Ltd.) containing 0.165 M 3-(N-morpholino)propanesulfonic acid (MOPS) to prepare a fungus liquid having a fungus concentration of 1×10^3 cells/mL to 2×10^3 cells/mL.
as §3, §4, §5, §6, §7, §8, §9

Experiment [4] relates to A. fumigatus. Described as above. It is filed as cell-based, Aspergillus fumigatus. To be noted: A. fumigatus (18 strains). The procedure: as §1, §2, §3, §4, §5, §6, §7, §8, §9
The subject of experiment [5] is C. albicans. The description is as above. It is filed as cell-based, Candida albicans. To be noted: C. albicans (20 strains); combination use with Test Compound 1. The procedure: as §1, §10, §3, §4, §5, §6, §7, §8, §9
Experiment [6] has as its system C. tropicalis. The experiment is described as above. To be noted: C. tropicalis (10 strains); combination use with Test Compound 1. It is filed as cell-based, Candida tropicalis. The procedure:
as §1, §10, §3, §4, §5, §6, §7, §8, §9

Structures are written as SMILES.

As to `Nc1c(-c2cc(Cc3ccc(COc4ccccn4)cc3)no2)ccc[n+]1COP(=O)([O-])O` [Test Compound 2, 2-amino-1-((phosphonooxy)methyl)-3-(3-((4-((2-pyridinyloxy)methyl)phenyl)methyl)-5-isoxazolyl)-pyridinium], the 14-day survival rate in experiment [1] (Test Compound 2 2.5 mg/kg, Table 5 CSFG experiment) is 0%; in experiment [1] (Test Compound 2 5 mg/kg, Table 5 CSFG experiment), 50%; in experiment [1] (Test Compound 2 5 mg/kg, Table 5 L-AmB experiment), 0%; in experiment [1] (Test Compound 2 5 mg/kg, Table 5 MCFG experiment), 22.2%; in experiment [1] (Test Compound 2 10 mg/kg, Table 5 MCFG experiment), 55.6%.

Regarding `CC[C@H](C)C[C@H](C)CCCCCCCCC(=O)N[C@H]1C[C@@H](O)[C@@H](NCCN)NC(=O)[C@@H]2[C@@H](O)CCN2C(=O)[C@H]([C@H](O)CCN)NC(=O)[C@H]([C@H](O)[C@@H](O)c2ccc(O)cc2)NC(=O)[C@@H]2C[C@@H](O)CN2C(=O)[C@H]([C@@H](C)O)NC1=O` [Caspofungin, caspofungin], the 14-day survival rate in experiment [1] (CSFG 0.1 mg/kg, Table 5) turned out to be 37.5%; in experiment [1] (CSFG 0.2 mg/kg, Table 5) it was 50%; in experiment [1] (CSFG 0.25 mg/kg, Table 4) it was 20%; in experiment [1] (CSFG 0.5 mg/kg, Table 4), 60%. In addition, the “Combined effects in mouse Aspergillus flavus infection model” value in experiment [1] (combination with the test compound of the invention) is “synergistic combined effects”. The “Ratio indicating Additive effect of combination use with Test Compound 1” value (from here on “Ratio indicating Additive effect”) turned out to be 25% in experiment [2]; 100% in experiment [3]; 22% in experiment [4]; 85% in experiment [5]; 90% in experiment [6]. Moreover, the “Ratio indicating Antagonistic effect of combination use with Test Compound 1” value (“Ratio indicating Antagonistic effect” below) in experiment [2], in experiment [3], in experiment [4], in experiment [5] and in experiment [6] was 0% in each case. In addition, the “Ratio indicating Indifferent effect of combination use with Test Compound 1” value (shortened to “Ratio indicating Indifferent effect”) is recorded as 0% in experiment [2]; 0% in experiment [3]; 0% in experiment [4]; 15% in experiment [5]; 10% in experiment [6]. Moreover, the “Ratio indicating Synergistic effect of combination use with Test Compound 1” value (“Ratio indicating Synergistic effect” below) in experiment [2] was 75%; in experiment [3], 0%; in experiment [4] it was 78%; in experiment [5], 0%; in experiment [6], 0%.

Turning to `OC(Cn1cncn1)(Cn1cncn1)c1ccc(F)cc1F` [Fluconazole, fluconazole], in experiment [3], the “Ratio indicating Additive effect” value is given as 90%, the “Ratio indicating Antagonistic effect” value worked out at 0%, the “Ratio indicating Indifferent effect” value was 10% and the “Ratio indicating Synergistic effect” value is 0%. In experiment [5], the “Ratio indicating Additive effect” value came out at 80%, the “Ratio indicating Antagonistic effect” value amounted to 0%, the “Ratio indicating Indifferent effect” value amounted to 10% and the “Ratio indicating Synergistic effect” value turned out to be 10%. Also, in experiment [6], the “Ratio indicating Additive effect” value worked out at 10%, the “Ratio indicating Antagonistic effect” value was 0%, the “Ratio indicating Indifferent effect” value amounted to 0% and the “Ratio indicating Synergistic effect” value was determined as 90%.
